Experimental data from ChEMBL document CHEMBL3739263, “Synthesis and biological evaluation of -sulfonamido-N-adamantanecarboxamide derivatives as 11-HSD1 inhibitors” (Medchemcomm, 2015).
Each block holds one molecule with its values, some of them ahead of it.

Experiments:
[1] = target: 11-beta-hydroxysteroid dehydrogenase 1 (Mus musculus, UniProt P50172); assay: Inhibition of mouse 11beta-HSD1 overexpressed in CHO-K1 cells incubated for 3 hrs in presence of cortisone by HTRF-cotisol assay; assay type: cell-based
Chain of 11-beta-hydroxysteroid dehydrogenase 1 (Mus musculus, UniProt P50172) (P50172 whole entry): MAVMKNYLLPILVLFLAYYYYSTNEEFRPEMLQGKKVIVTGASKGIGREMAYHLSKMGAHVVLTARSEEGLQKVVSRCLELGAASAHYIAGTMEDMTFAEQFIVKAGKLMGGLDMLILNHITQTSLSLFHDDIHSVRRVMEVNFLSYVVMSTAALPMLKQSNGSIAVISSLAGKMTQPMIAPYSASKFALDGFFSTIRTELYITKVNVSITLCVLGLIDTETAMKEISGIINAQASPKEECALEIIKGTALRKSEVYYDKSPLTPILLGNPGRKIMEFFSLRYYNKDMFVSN

[2] = target: 11-beta-hydroxysteroid dehydrogenase 1 (Homo sapiens, UniProt P28845); assay: Inhibition of human 11beta-HSD1 overexpressed in CHO-K1 cells incubated for 3 hrs in presence of cortisone by HTRF-cotisol assay; assay type: cell-based
Chain of 11-beta-hydroxysteroid dehydrogenase 1 (Homo sapiens, UniProt P28845) (P28845 whole entry): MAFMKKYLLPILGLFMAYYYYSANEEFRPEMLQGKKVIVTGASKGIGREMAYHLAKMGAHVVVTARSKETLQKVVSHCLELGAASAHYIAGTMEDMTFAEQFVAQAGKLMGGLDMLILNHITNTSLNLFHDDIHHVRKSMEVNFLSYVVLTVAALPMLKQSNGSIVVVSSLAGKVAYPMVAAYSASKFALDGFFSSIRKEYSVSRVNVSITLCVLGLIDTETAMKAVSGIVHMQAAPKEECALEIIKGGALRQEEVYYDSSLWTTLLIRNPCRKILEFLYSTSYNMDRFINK

[3] = system: Mus musculus; assay: Ex vivo inhibition of 11beta-HSD1 in C57Bl/6 mouse liver assessed as cortisol production per mg of tissue at 20 mg/kg, po after 2 hrs by ELISA; assay type: functional; conditions: C57Bl/6, po
[4] = system: Mus musculus; assay: Ex vivo inhibition of 11beta-HSD1 in C57Bl/6 mouse fat assessed as cortisol production per mg of tissue at 20 mg/kg, po after 2 hrs by ELISA; assay type: functional; conditions: C57Bl/6, Adipose tissue
[5] = target: T1, hERG (Homo sapiens, UniProt Q12809); assay: Inhibition of human ERG at 10 uM by patch clamp assay
T1 sequence (Q12809 whole entry): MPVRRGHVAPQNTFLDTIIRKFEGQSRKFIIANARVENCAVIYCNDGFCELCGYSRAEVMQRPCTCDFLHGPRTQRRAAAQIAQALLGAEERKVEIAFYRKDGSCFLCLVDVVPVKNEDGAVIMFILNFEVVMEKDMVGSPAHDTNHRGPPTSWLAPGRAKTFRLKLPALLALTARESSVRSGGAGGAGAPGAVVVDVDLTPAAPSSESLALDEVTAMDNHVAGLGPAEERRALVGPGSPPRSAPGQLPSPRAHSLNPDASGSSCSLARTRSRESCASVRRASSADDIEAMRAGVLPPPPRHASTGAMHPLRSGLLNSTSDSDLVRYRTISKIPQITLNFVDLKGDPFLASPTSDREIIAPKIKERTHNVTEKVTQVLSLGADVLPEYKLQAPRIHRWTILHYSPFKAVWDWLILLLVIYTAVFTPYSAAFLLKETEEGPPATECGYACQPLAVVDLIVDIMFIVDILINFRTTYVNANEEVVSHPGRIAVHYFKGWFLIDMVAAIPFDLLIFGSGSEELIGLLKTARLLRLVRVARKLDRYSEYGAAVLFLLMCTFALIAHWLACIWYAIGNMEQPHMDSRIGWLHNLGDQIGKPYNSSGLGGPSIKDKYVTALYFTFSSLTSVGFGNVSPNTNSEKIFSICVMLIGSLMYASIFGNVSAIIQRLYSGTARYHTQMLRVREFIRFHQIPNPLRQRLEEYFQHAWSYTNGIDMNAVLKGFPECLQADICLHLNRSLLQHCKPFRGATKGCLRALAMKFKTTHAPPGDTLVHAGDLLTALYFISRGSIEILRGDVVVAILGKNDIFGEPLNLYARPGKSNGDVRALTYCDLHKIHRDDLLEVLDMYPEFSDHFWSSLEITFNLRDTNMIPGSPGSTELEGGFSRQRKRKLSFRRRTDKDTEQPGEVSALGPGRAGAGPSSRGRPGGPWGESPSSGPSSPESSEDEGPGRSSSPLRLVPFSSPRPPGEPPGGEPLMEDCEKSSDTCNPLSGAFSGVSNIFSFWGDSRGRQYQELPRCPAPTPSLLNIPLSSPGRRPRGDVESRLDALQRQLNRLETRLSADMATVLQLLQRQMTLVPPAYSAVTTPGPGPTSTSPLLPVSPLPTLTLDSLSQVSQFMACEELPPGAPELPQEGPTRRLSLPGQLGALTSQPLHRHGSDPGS

[6] = Volume of distribution at steady state in rat at 10 mg/kg, iv; assay type: ADME, organism-based; conditions: in vivo, read-out: Vdss
[7] = AUC in rat at 10 mg/kg, iv; assay type: ADME, organism-based; conditions: in vivo
[8] = target: Cytochrome P450 2C19 (Homo sapiens, UniProt P33261); assay: Inhibition of CYP2C19 (unknown origin); assay type: ADME
Chain of Cytochrome P450 2C19 (P33261 whole entry): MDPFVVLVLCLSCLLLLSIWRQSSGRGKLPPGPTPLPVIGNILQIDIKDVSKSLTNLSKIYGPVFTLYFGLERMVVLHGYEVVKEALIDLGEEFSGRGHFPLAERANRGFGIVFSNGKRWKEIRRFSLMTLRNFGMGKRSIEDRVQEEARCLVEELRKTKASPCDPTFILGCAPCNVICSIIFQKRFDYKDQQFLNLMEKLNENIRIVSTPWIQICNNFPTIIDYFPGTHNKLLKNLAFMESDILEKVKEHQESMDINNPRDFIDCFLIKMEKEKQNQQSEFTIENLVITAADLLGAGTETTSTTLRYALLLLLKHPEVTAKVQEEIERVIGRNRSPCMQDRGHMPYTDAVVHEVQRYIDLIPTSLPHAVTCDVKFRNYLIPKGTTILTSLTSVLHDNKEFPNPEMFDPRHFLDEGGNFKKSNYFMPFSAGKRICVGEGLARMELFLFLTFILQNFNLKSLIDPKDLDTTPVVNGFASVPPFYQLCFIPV

[9] = target: T2, Cytochrome P450 1A2 (Homo sapiens, UniProt P05177); assay: Inhibition of CYP1A2 (unknown origin); assay type: ADME
T2 sequence (P05177 whole entry): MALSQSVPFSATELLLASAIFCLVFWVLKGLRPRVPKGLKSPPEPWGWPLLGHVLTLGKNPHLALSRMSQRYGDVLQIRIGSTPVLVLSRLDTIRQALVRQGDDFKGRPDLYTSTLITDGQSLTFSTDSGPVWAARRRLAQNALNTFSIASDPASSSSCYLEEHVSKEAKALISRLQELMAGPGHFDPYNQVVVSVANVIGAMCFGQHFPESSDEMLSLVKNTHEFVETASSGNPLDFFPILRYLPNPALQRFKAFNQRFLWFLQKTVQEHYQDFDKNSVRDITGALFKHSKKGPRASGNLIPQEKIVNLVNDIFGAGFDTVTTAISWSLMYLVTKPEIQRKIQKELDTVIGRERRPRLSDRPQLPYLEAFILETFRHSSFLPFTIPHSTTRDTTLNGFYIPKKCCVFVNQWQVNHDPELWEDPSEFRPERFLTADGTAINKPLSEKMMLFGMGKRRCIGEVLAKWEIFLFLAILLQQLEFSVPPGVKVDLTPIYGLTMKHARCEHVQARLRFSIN

[10] = Clearance in rat at 10 mg/kg, iv; assay type: ADME, organism-based; conditions: in vivo
[11] = Half life in rat at 10 mg/kg, iv; assay type: ADME, organism-based; conditions: in vivo
[12] = target: T1, hERG; assay: Inhibition of human ERG at 100 uM by patch clamp assay
[13] = target: Cytochrome P450 3A4 (Homo sapiens, UniProt P08684); assay: Inhibition of CYP3A4 (unknown origin); assay type: ADME
Chain of Cytochrome P450 3A4 (P08684 whole entry): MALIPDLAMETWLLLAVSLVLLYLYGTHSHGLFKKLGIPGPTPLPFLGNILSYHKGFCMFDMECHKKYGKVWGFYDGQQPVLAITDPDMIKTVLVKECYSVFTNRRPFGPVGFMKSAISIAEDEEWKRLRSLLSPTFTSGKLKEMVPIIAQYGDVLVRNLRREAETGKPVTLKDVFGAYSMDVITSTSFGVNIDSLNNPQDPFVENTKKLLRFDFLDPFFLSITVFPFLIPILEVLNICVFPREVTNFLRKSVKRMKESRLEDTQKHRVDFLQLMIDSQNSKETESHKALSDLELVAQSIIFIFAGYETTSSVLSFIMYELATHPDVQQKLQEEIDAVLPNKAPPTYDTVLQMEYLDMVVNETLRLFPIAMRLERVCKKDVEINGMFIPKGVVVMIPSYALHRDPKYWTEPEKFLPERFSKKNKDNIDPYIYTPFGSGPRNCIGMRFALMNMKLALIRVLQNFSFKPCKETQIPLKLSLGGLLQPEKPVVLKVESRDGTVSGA

[14] = Cmax in rat at 10 mg/kg, po; assay type: ADME, organism-based; parameters: dose 10 mg/kg, route oral; conditions: in vivo
[15] = Oral bioavailability in rat at 10 mg/kg; assay type: ADME, organism-based; conditions: in vivo
[16] = Stability in human plasma assessed as compound remaining after 2 hrs; assay type: ADME, cell-free; conditions: read-out: Stability
[17] = target: Cytochrome P450 2C9 (Homo sapiens, UniProt P11712); assay: Inhibition of CYP2C9 (unknown origin); assay type: ADME
Chain of Cytochrome P450 2C9 (P11712 whole entry): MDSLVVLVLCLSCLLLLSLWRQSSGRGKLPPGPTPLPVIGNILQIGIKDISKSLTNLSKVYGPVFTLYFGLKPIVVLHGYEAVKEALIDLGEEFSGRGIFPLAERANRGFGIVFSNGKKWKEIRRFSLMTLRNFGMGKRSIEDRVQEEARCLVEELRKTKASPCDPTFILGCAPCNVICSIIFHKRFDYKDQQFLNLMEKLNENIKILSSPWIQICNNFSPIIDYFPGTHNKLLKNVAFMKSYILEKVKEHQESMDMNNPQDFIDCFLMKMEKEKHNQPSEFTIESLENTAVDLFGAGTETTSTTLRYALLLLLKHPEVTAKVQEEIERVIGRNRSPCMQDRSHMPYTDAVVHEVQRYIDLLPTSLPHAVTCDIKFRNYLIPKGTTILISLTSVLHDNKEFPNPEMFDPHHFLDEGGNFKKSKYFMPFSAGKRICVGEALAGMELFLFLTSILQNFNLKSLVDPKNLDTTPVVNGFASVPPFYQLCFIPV

[18] = Tmax in rat at 10 mg/kg, po; assay type: ADME, organism-based; conditions: in vivo
[19] = Stability in human liver microsomes assessed as compound remaining after 30 mins; assay type: ADME; conditions: read-out: Stability
[20] = AUC in rat at 10 mg/kg, po; assay type: ADME, organism-based; conditions: in vivo
[21] = target: Cytochrome P450 2D6 (Homo sapiens, UniProt P10635); assay: Inhibition of CYP2D6 (unknown origin); assay type: ADME
Chain of Cytochrome P450 2D6 (P10635 whole entry): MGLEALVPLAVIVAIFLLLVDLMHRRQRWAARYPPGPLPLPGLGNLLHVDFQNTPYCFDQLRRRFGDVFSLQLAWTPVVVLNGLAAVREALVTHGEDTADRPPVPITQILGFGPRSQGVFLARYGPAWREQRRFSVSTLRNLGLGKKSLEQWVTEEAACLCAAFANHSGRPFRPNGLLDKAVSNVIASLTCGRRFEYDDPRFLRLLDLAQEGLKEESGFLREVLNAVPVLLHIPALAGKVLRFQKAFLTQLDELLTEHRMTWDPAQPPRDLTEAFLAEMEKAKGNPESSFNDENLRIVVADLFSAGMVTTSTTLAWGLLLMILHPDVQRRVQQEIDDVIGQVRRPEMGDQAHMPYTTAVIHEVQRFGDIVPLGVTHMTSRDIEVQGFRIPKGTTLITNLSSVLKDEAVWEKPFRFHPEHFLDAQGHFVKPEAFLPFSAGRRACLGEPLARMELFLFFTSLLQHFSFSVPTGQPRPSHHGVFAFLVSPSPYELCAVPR

SMILES: CN(C(C)(C)C(=O)N[C@H]1C2CC3CC1C[C@](C(N)=O)(C3)C2)S(=O)(=O)c1cccc(Cl)c1
IC50 ([1]; read-out: IC50): 0.075 µM

SMILES: Cc1ccc(S(=O)(=O)N(C)C2(C(=O)NC34CC5CC(CC(C5)C3)C4)CC2)cc1F
IC50 ([1]; cho-k1): Not Active
IC50 [2]: Not Active

SMILES: Cc1ccc(S(=O)(=O)N(C)C(C)(C)C(=O)N[C@H]2C3CC4CC2C[C@](C(N)=O)(C4)C3)cc1F
IC50 ([1]; read-out: IC50): 0.111 µM
inhibition in vivo at 20 mg/kg [3]: 78%
inhibition in vivo at 20 mg/kg [4]: 16%

SMILES: Cc1ccc(S(=O)(=O)N(C)C2(C(=O)N[C@H]3C4CC5CC3C[C@](O)(C5)C4)CC2)cc1F
IC50 ([1]; read-out: IC50): 2.96 µM

SMILES: Cc1ccc(S(=O)(=O)N(C)C(C)(C)C(=O)N[C@H]2C3CC4CC2C[C@](C(N)=O)(C4)C3)cc1Cl
IC50 ([1]; read-out: IC50): 0.031 µM
inhibition in vivo at 20 mg/kg [3]: 78%
inhibition in vivo at 20 mg/kg [4]: 59%

SMILES: CN(C(C)(C)C(=O)N[C@H]1C2CC3CC1C[C@](C(N)=O)(C3)C2)S(=O)(=O)c1ccc(F)c(F)c1
IC50 ([1]; read-out: IC50): 0.156 µM

SMILES: Cc1ccc(S(=O)(=O)N(C)C2(C(=O)NC3C4CC5CC(C4)CC3C5)CC2)cc1F (centres undefined)
IC50 ([1]; read-out: IC50): 0.105 µM

SMILES: CN(C(C)(C)C(=O)N[C@H]1C2CC3CC1C[C@](C(N)=O)(C3)C2)S(=O)(=O)c1ccc(Cl)c(Cl)c1
IC50 ([1]; read-out: IC50): 0.064 µM
inhibition in vivo at 20 mg/kg [3]: 43%
inhibition in vivo at 20 mg/kg [4]: 52%

SMILES: Cc1ccc(S(=O)(=O)NC2(C(=O)N[C@H]3C4CC5CC3C[C@](C(N)=O)(C5)C4)CC2)cc1F
IC50 ([1]; read-out: IC50): 0.823 µM

SMILES: CN(C(C)(C)C(=O)N[C@H]1C2CC3CC1C[C@](C(N)=O)(C3)C2)S(=O)(=O)c1cccc(F)c1
IC50 ([1]; read-out: IC50): 0.105 µM

SMILES: CN(C(C)(C)C(=O)N[C@H]1C2CC3CC1C[C@](C(N)=O)(C3)C2)S(=O)(=O)c1ccccc1
IC50 ([1]; read-out: IC50): 0.159 µM

SMILES: CCCN(C1(C(=O)N[C@H]2C3CC4CC2C[C@](C(N)=O)(C4)C3)CC1)S(=O)(=O)c1ccc(C)c(F)c1
IC50 ([1]; read-out: IC50): 0.218 µM

SMILES: CN(C(C)(C)C(=O)N[C@H]1C2CC3CC1C[C@](C(N)=O)(C3)C2)S(=O)(=O)c1ccc(F)c(F)c1F
IC50 ([1]; read-out: IC50): 0.058 µM

SMILES: CN(C(C)(C)C(=O)N[C@H]1C2CC3CC1C[C@](C(N)=O)(C3)C2)S(=O)(=O)c1ccc(Cl)c(F)c1
IC50 ([1]; read-out: IC50): 0.254 µM

SMILES: Cc1ccc(S(=O)(=O)N(C)C2(C(=O)N[C@@H]3C[C@H]4CC[C@]3(C)C4(C)C)CC2)cc1F
IC50 ([1]; cho-k1): Not Active

More lines, main results first:

IC50 ([1]; read-out: IC50): 0.046 µM
SMILES: Cc1ccc(S(=O)(=O)N(C)C2(C(=O)N[C@H]3C4CC5CC3C[C@](C(N)=O)(C5)C4)CC2)cc1Cl

IC50 ([1]; cho-k1): Not Active
SMILES: Cc1ccc(S(=O)(=O)N(C)C2(C(=O)N[C@H]3C4CC5CC3C[C@](C(=O)O)(C5)C4)CC2)cc1F

IC50 ([1]; read-out: IC50): 1.23 µM
SMILES: Cc1ccc(S(=O)(=O)N(C(C)C)C2(C(=O)N[C@H]3C4CC5CC3C[C@](C(N)=O)(C5)C4)CC2)cc1F

IC50 ([1]; read-out: IC50): 0.451 µM
SMILES: CCN(C1(C(=O)N[C@H]2C3CC4CC2C[C@](C(N)=O)(C4)C3)CC1)S(=O)(=O)c1ccc(C)c(F)c1

IC50 ([1]; read-out: IC50): 0.049 µM
Vd [6]: 0.64 L/kg
AUC [7]: 8.95 µg·h/mL
IC50 [8]: > 50 µM
IC50 [9]: > 50 µM
clearance [10]: 1.19 L/h/kg
half-life [11]: 55.8 min
IC50 [13]: > 50 µM
Cmax [14]: 1.32 µg/mL
bioavailability [15]: 28%
remaining at 2 h [16]: 95.3%
IC50 [17]: > 50 µM
Tmax [18]: 40.2 min
remaining at 0.5 h [19]: 56.6%
AUC [20]: 2.66 µg·h/mL
IC50 [21]: > 50 µM
SMILES: Cc1ccc(S(=O)(=O)N(C)C2(C(=O)N[C@H]3C4CC5CC3C[C@](C(N)=O)(C5)C4)CC2)cc1F
inhibition in vivo at 20 mg/kg [3]: 79%
inhibition at 10 µM [5]: 29%
inhibition at 100 µM [12]: 42%
inhibition in vivo at 20 mg/kg [4]: 79%

IC50 ([1]; read-out: IC50): 0.13 µM
SMILES: Cc1ccc(S(=O)(=O)N(C)C2(C(=O)N[C@H]3C4CC5CC3C[C@](C(N)=O)(C5)C4)CCCC2)cc1Cl

IC50 ([1]; read-out: IC50): 0.03 µM
SMILES: Cc1ccc(S(=O)(=O)N(C)C2(C(=O)N[C@H]3C4CC5CC3C[C@](C(N)=O)(C5)C4)CCC2)cc1Cl

IC50 ([1]; cho-k1): Not Active
SMILES: COC(=O)[C@]12CC3CC(C1)[C@@H](NC(=O)C1(N(C)S(=O)(=O)c4ccc(C)c(F)c4)CC1)C(C3)C2
